Data: patent US20130261066A1, “TREATMENT OF INFLAMMATORY BOWEL DISEASES USING A TRIPEPTIDE” (THE RESEARCH FOUNDATION OF STATE UNIVERSITY OF NEW YORK, priority 2010, published 2013)
Entries after “also recorded” stand apart in the source; their conditions may differ.

Legend:
TNBS-induced colitis = TNBS-induced colitis (experimental Crohn's disease) in SJL/J mice; assay type: in vivo
Experimental: TNBS (2,4,6-trinitro benzene sulfonic acid) induces a form of colitis in SJL/J mice that recapitulates Crohn's disease. The optimal dose of TNBS was determined to be 100 μl of a 2.5% ethanolic solution instilled intracolonically. SJL mice received 2.5% TNBS solution in 50% ethanol by intra-colonic instillation using a 3.5 F catheter, which was inserted 4 cm into the colon under mild ketamine/xylazine anesthesia. Mice received MC-12 25 mg/kg or vehicle ip twice a day for two days. Body weight was monitored daily and mice were euthanized on the third day when blood and colon tissues were collected as described above for further analysis.
The fixed colon was cut into six equal fragments, dehydrated and embedded into paraffin. The tissue sections were stained with hematoxylin and eosin (H&E). The histological score was determined by two pathologists as described, based on the degree (0-3) and extent (0-3) of inflammation, crypt damage (0-4) and the area involved (0-4). The scores of each of the first three parameters were multiplied by the fourth and the sum of these three multiples was the final score (ranging from 0 to 40).

NF-κB = experiment: Phospho-NF-κB p65 immunohistochemistry of colonic mucosa, DSS mice; assay type: in vivo; details: for NF-κB activation / nuclear translocation in colonic mucosa: MC-12 5 and 25 mg/kg, ip and po
Excerpt: NF-κB is the master regulator of inflammation, controlling the transcription of many genes related to this complex process. It is also the molecular target of the activity of MC 12. Therefore, we determined by immunohistochemistry the level of NF-κB activation in the colonic mucosa of our four study groups of mice. There was minimum or […] activation of NF-κB in the colon of control animals (FIG. 4A). DSS, as expected, activated NF-κB in both colonic crypts and stromal cells (FIG. 4B).
The level of NF-κB activation in the colonic mucosa was determined by immunohistochemistry (FIG. 9). NF-κB is the molecular target of MC-12. Immunohistochemical staining for phospho-NF-κB (activate form of NF-κB) was performed on the colon tissue samples. Briefly, paraffin-embedded sections (4 μm thick) were deparaffinized, rehydrated, and microwave heated for 15 minutes in 0.01 mol/L citric acid buffer (pH 6.0) for antigen retrieval. Then, 3% hydrogen peroxide was applied to block endogenous peroxidase activity. After 30 minutes of blocking with normal serum (Invitrogen, Carlsbad, Calif.), the primary rabbit anti-phospho-NF-κB p65 antibody (Cell Signaling) or corresponding control isotype IgG were applied and incubated overnight at 4° C. Slides were washed thrice with PBS, each for 5 minutes. The biotinylated secondary antibody and the streptavidin-biotin complex were applied, each for 60 minutes incubation and following a thrice-wash at room temperature. After rinsing with PBS, the slides were immersed for 10 minutes in 3,3′-diaminobenzidine (Sigma, St. Louis, Mo.) solution (0.4 mg/mL, with 0.003% hydrogen peroxide), monitored under microscope. The reactions were stopped with distilled water. The slides were counterstained with hematoxylin, dehydrated, and coverslipped. Five photos per section were taken and the positive luminosity was evaluated using PhotoShop program.

DSS-induced colitis = DSS-induced colitis in mice, MC-12 5 or 25 mg/kg ip or po (Example 4); assay type: in vivo; details: for reduction of histological score compared to DSS control: p<0.01
[1] = test system: NF-κB in NCM 460 cells (normal colon epithelial cells); experiment: NF-κB DNA binding activity (EMSA) in DSS-treated NCM460 cells; assay type: cell-based
myeloperoxidase (MPO) = experiment: Myeloperoxidase activity in colon tissue of DSS-treated mice; assay type: in vivo
Experimental: To further assess the effect of MC12 on the inflammatory changes associated with DSS induced colitis, myeloperoxidase (MPO) activity and cytosolic phospholipase A2 (cPLA2) in tissue samples was determined.
MPO activity is an indicator of the degree of acute inflammation in a given tissue. MPO activity was measured using a commercial kit and following the instructions of the manufacturer (Invitrogen, Eugene, Oreg.). Briefly, a portion of colon tissue was homogenized in PBS and centrifuged at 10,000×g for 15 min and 50 μl of supernatant from each sample were added into a 96-well microplate. 50 μl of 2×APF working solution was added to all sample and standard wells and the plate was incubated at room temperature for 30 min. The reaction was stopped by adding 10 μl of 10× chlorination inhibitor. The fluorescence intensity was measured using a Multiplate Reader (Molecular Devices) at excitation at 485 nm, emission at 530 nm.
To assess the effect of MC-12 on the inflammatory changes associated with DSS-induced colitis, myeloperoxidase activity in tissue samples was determined as above.

Substance: Gln-Ala-Trp (QAW) [MC12]
- inflammatory cell infiltration and crypt loss (histology) (TNBS-induced colitis; 25 mg/kg bid for 2 d): decreased the inflammatory cell infiltration and crypt loss
- TNBS-caused shortening of colon length (TNBS-induced colitis; 25 mg/kg ip bid 2 d): did not prevent this effect
- reduction of body weight on day 3 compared to baseline (TNBS-induced colitis; 25 mg/kg ip bid 2 d, TNBS alone 18.2%): 15.3%
- histological score (mean±SEM) (TNBS-induced colitis; 25 mg/kg ip bid 2 d, TNBS control 38.3±1.7, scale 0 to 40): 23.3±3.3
- reduction of histological score compared to TNBS control (TNBS-induced colitis; 25 mg/kg ip bid 2 d, p<0.01): 39.1%
- prevention of weight loss (TNBS-induced colitis; 25 mg/kg ip twice a day for two days): did not prevent weight loss
- NF-κB activation in colonic mucosa (NF-κB; MC12 40 and 80 μg ip): less NF-κB nuclear translocation; also recorded: markedly decreased this effect of DSS
- NF-κB activation / nuclear translocation in colonic mucosa (NF-κB; listed as MC 12): marked decrease of NF-κB nuclear translocation
- NF-κB activation / nuclear translocation in colonic mucosa (NF-κB; listed as MC-12): markedly decreased this effect of DSS in a clear dose-dependent manner
- NF-κB activation in colonic mucosa (NF-κB; highest dose 25 mg/kg): essentially normalizing it
- reduction of histological score compared to DSS control (DSS-induced colitis; 5 mg/kg po): 50.2%
- DSS-induced colonic inflammation (H&E histology) (DSS-induced colitis; 25 mg/kg orally): also decreased DSS-induced colonic inflammation
- reduction of histological score compared to DSS control (DSS-induced colitis; 25 mg/kg po): 48.4%
- increase in weight compared to baseline (DSS-induced colitis; highest ip dose 500 μg/day, day 8): 7.7%
- DSS-induced NF-κB-DNA binding activity (NF-κB activation) ([1]; 30 μM, listed as MC 12): significantly blocked this effect
- DSS-induced NF-κB-DNA binding activity (NF-κB activation) ([1]; 30 μM, listed as MC-12): essentially eliminated NF-κB activation
- DSS-induced NF-κB-DNA binding activity (NF-κB activation) ([1]; 300 μM, listed as MC 12): significantly blocked this effect
- DSS-induced NF-κB-DNA binding activity (NF-κB activation) ([1]; 300 μM, listed as MC-12): essentially eliminated NF-κB activation
- MPO activity (myeloperoxidase (MPO); MC12 80 μg dose): essentially normalized
- MPO activity (myeloperoxidase (MPO); MC12 40 or 80 μg): significant (p<0.01) and concentration-dependent reduction in MPO activity
- MPO activity (myeloperoxidase (MPO); MC-12 25 mg/kg): essentially normalized
- MPO activity (myeloperoxidase (MPO); MC-12 5 or 25 mg/kg): significant (p<0.01) and concentration-dependent reduction in MPO activity
